Results as given in US20250382332A1, “NOVEL ALPHA-FACTOR BASED PEPTIDES WITH ANTIFUNGAL ACTIVITY” (INVAIO SCIENCES, INC., priority 2024, published 2025).
Peptide text beside a SMILES is read from it.

System: Botrytis cinerea (B05.10)
Assay: Resazurin antifungal assay of 180 alpha-factor peptide variants towards Botrytis (Example 2)
Assay type: cell-based
Conditions: % inhibition of fungal growth, Botrytis conidia, resazurin; for Inhibition at 50 μM: peptide 50 μM; for Inhibition at 100 μM: peptide 100 μM
In short: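 B. cinerea B05.10 conidia (5000/well) were exposed to peptides at 100, 50, 20, 15 and 10 μM final for 24 h at 20° C. Resazurin was then added and fluorescence read at 570/620 nm. Percent growth inhibition was calculated against conidia-only wells, with four technical replicates.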

Row | Structure (SMILES) | Inhibition at 50 μM [%] | Inhibition at 100 μM [%]
1 | CC[C@H](C)[C@H](NC(=O)[C@H](Cc1c[nH]c2ccccc12)NC(=O)[C@H](Cc1c[nH]cn1)NC(=O)[C@@H](N)Cc1c[nH]c2ccccc12)C(=O)N[C@@H](CC(N)=O)C(=O)N[C@@H](CC(C)C)C(=O)N[C@@H](Cc1c[nH]c2ccccc12)C(=O)N1CCC[C@H]1C(=O)NCC(=O)N[C@@H](CCC(N)=O)C(=O)N1CCC[C@H]1C(=O)N[C@@H](CCSC)C(=O)N[C@@H](Cc1ccc(O)cc1)C(=O)O [compound 114] (H-WHWINLWPGQPMY-OH; N-terminus and C-terminus assumed) | <90 | 100
2 | CSCC[C@H](NC(=O)[C@@H]1CCCN1C(=O)[C@H](CCC(N)=O)NC(=O)CNC(=O)[C@H](CC(C)C)NC(=O)[C@H](CCCCN)NC(=O)[C@H](CC(C)C)NC(=O)[C@H](CCC(N)=O)NC(=O)[C@H](CC(C)C)NC(=O)[C@@H](NC(=O)[C@H](CCCCN)NC(=O)[C@@H](N)CCCCN)C(C)C)C(=O)N[C@@H](Cc1ccc(O)cc1)C(=O)O [compound 115] (H-KKVLQLKLGQPMY-OH; N-terminus and C-terminus assumed) | <90 | 99.72
3 | CSCC[C@H](NC(=O)[C@@H]1CCCN1C(=O)[C@H](CCC(N)=O)NC(=O)CNC(=O)[C@@H]1CCCN1C(=O)[C@H](CCCCN)NC(=O)[C@H](Cc1ccccc1)NC(=O)[C@H](CCCCN)NC(=O)[C@H](CC(C)C)NC(=O)[C@H](CC(=O)O)NC(=O)[C@H](Cc1c[nH]cn1)NC(=O)[C@@H](N)CCCCN)C(=O)N[C@@H](Cc1ccc(O)cc1)C(=O)O [compound 116] (H-KHDLKFKPGQPMY-OH; N-terminus and C-terminus assumed) | <90 | 93.51
4 | CSCC[C@H](NC(=O)[C@@H]1CCCN1C(=O)[C@H](CCC(N)=O)NC(=O)CNC(=O)[C@@H]1CCCN1C(=O)[C@H](CCCCN)NC(=O)[C@H](CC(C)C)NC(=O)[C@H](CCC(N)=O)NC(=O)CNC(=O)[C@H](CO)NC(=O)[C@H](CCC(N)=O)NC(=O)[C@@H](N)Cc1c[nH]c2ccccc12)C(=O)N[C@@H](Cc1ccc(O)cc1)C(=O)O [compound 117] (H-WQSGQLKPGQPMY-OH; N-terminus and C-terminus assumed) | <90 | <90
5 | CSCC[C@H](NC(=O)[C@H](Cc1c[nH]cn1)NC(=O)[C@@H](N)Cc1c[nH]c2ccccc12)C(=O)N[C@@H](CC(C)C)C(=O)N[C@@H](CC(N)=O)C(=O)N[C@@H](Cc1ccccc1)C(=O)N[C@@H](CCCCN)C(=O)N1CCC[C@H]1C(=O)NCC(=O)N[C@@H](CCC(N)=O)C(=O)N1CCC[C@H]1C(=O)N[C@@H](CCSC)C(=O)N[C@@H](Cc1ccc(O)cc1)C(=O)O [compound 118] (H-WHMLNFKPGQPMY-OH; N-terminus and C-terminus assumed) | <90 | <90
6 | CSCC[C@H](NC(=O)[C@@H]1CCCN1C(=O)[C@H](CCC(=O)O)NC(=O)CNC(=O)[C@@H](NC(=O)CNC(=O)[C@H](CC(C)C)NC(=O)[C@H](CCCCN)NC(=O)[C@H](CC(C)C)NC(=O)[C@H](Cc1c[nH]c2ccccc12)NC(=O)[C@H](Cc1c[nH]cn1)NC(=O)[C@@H](N)Cc1c[nH]c2ccccc12)[C@@H](C)O)C(=O)N[C@@H](Cc1ccc(O)cc1)C(=O)O [compound 119] (H-WHWLKLGTGEPMY-OH; N-terminus and C-terminus assumed) | <90 | 98.65
7 | CC[C@H](C)[C@H](NC(=O)[C@H](CCC(N)=O)NC(=O)CNC(=O)[C@H](CCSC)NC(=O)[C@H](CO)NC(=O)[C@@H](N)Cc1c[nH]c2ccccc12)C(=O)N[C@@H](CCCCN)C(=O)N1CCC[C@H]1C(=O)NCC(=O)N[C@@H](CO)C(=O)N1CCC[C@H]1C(=O)N[C@@H](CCSC)C(=O)N[C@@H](Cc1ccc(O)cc1)C(=O)O [compound 120] (H-WSMGQIKPGSPMY-OH; N-terminus and C-terminus assumed) | <90 | <90
8 | CC[C@H](C)[C@H](NC(=O)[C@H](CCC(N)=O)NC(=O)[C@H](CC(C)C)NC(=O)CNC(=O)[C@H](CO)NC(=O)[C@@H]1CCCN1)C(=O)N[C@@H](CCCCN)C(=O)N[C@H](C(=O)NCC(=O)N[C@@H](CCC(N)=O)C(=O)N1CCC[C@H]1C(=O)N[C@@H](CCSC)C(=O)N[C@@H](Cc1ccc(O)cc1)C(=O)O)C(C)C [compound 121] (H-PSGLQIKVGQPMY-OH; N-terminus and C-terminus assumed) | <90 | <90
9 | CSCC[C@H](NC(=O)[C@H](CO)NC(=O)[C@H](CO)NC(=O)CNC(=O)[C@@H]1CCCN1C(=O)[C@H](CCCCN)NC(=O)[C@H](CC(C)C)NC(=O)[C@H](CO)NC(=O)[C@H](CC(C)C)NC(=O)[C@H](Cc1c[nH]c2ccccc12)NC(=O)[C@H](CCC(=O)O)NC(=O)[C@@H]1CCCN1)C(=O)N[C@@H](Cc1ccc(O)cc1)C(=O)O [compound 122] (H-PEWLSLKPGSSMY-OH; N-terminus and C-terminus assumed) | <90 | <90
10 | CSCC[C@H](NC(=O)CNC(=O)[C@H](CCC(N)=O)NC(=O)CNC(=O)[C@H](Cc1ccc(O)cc1)NC(=O)[C@H](CCCCN)NC(=O)[C@H](CC(C)C)NC(=O)[C@H](CCC(N)=O)NC(=O)[C@@H](NC(=O)[C@H](Cc1c[nH]c2ccccc12)NC(=O)[C@H](CCC(N)=O)NC(=O)[C@@H](N)CCCCN)C(C)C)C(=O)N[C@@H](Cc1ccc(O)cc1)C(=O)O [compound 123] (H-KQWVQLKYGQGMY-OH; N-terminus and C-terminus assumed) | <90 | 100
11 | CC[C@H](C)[C@H](NC(=O)CNC(=O)[C@H](Cc1c[nH]cn1)NC(=O)[C@@H](N)Cc1c[nH]c2ccccc12)C(=O)N[C@@H](CCC(N)=O)C(=O)N[C@@H](CC(C)C)C(=O)N[C@@H](Cc1ccccc1)C(=O)N[C@@H](CCCCN)C(=O)NCC(=O)N[C@@H](CCC(N)=O)C(=O)N1CCC[C@H]1C(=O)N[C@@H](CCSC)C(=O)N[C@@H](Cc1ccc(O)cc1)C(=O)O [compound 124] (H-WHGIQLFKGQPMY-OH; N-terminus and C-terminus assumed) | <90 | 100
12 | CSCC[C@H](NC(=O)[C@@H]1CCCN1C(=O)[C@H](CCC(N)=O)NC(=O)CNC(=O)[C@@H]1CCCN1C(=O)[C@H](Cc1ccc(O)cc1)NC(=O)[C@H](CC(C)C)NC(=O)[C@H](CCC(N)=O)NC(=O)[C@@H](NC(=O)[C@H](Cc1c[nH]c2ccccc12)NC(=O)[C@H](CCC(=O)O)NC(=O)[C@@H](N)CCCCN)C(C)C)C(=O)N[C@@H](Cc1ccc(O)cc1)C(=O)O [compound 125] (H-KEWVQLYPGQPMY-OH; N-terminus and C-terminus assumed) | <90 | <90
13 | CSCC[C@H](NC(=O)CNC(=O)[C@H](CCC(N)=O)NC(=O)CNC(=O)[C@@H]1CCCN1C(=O)[C@H](CCCCN)NC(=O)[C@H](Cc1ccccc1)NC(=O)[C@H](CCC(=O)O)NC(=O)[C@H](CC(C)C)NC(=O)[C@H](CC(=O)O)NC(=O)[C@H](Cc1c[nH]cn1)NC(=O)[C@@H]1CCCN1)C(=O)N[C@@H](Cc1ccc(O)cc1)C(=O)O [compound 126] (H-PHDLEFKPGQGMY-OH; N-terminus and C-terminus assumed) | <90 | <90
14 | CC[C@H](C)[C@H](NC(=O)[C@H](CO)NC(=O)[C@H](CCCCN)NC(=O)[C@@H](N)Cc1c[nH]c2ccccc12)C(=O)N[C@@H](CC(N)=O)C(=O)N[C@@H](Cc1ccccc1)C(=O)N[C@@H](CCCCN)C(=O)N1CCC[C@H]1C(=O)NCC(=O)N[C@@H](CCC(N)=O)C(=O)N1CCC[C@H]1C(=O)N[C@@H](CCSC)C(=O)N[C@@H](Cc1ccc(O)cc1)C(=O)O [compound 127] (H-WKSINFKPGQPMY-OH; N-terminus and C-terminus assumed) | <90 | <90
15 | CSCC[C@H](NC(=O)[C@@H]1CCCN1C(=O)[C@H](CCC(N)=O)NC(=O)CNC(=O)[C@@H]1CCCN1C(=O)[C@H](CC(=O)O)NC(=O)[C@H](Cc1ccccc1)NC(=O)[C@H](CCC(=O)O)NC(=O)[C@@H](NC(=O)[C@H](Cc1c[nH]c2ccccc12)NC(=O)[C@H](Cc1c[nH]cn1)NC(=O)[C@@H]1CCCN1)C(C)C)C(=O)N[C@@H](Cc1ccc(O)cc1)C(=O)O [compound 128] (H-PHWVEFDPGQPMY-OH; N-terminus and C-terminus assumed) | <90 | <90
16 | CSCC[C@H](NC(=O)[C@@H]1CCCN1C(=O)[C@H](CCC(N)=O)NC(=O)CNC(=O)[C@@H]1CCCN1C(=O)[C@H](Cc1c[nH]cn1)NC(=O)[C@H](CC(C)C)NC(=O)[C@H](CCC(=O)O)NC(=O)[C@H](CC(C)C)NC(=O)CNC(=O)[C@H](CCC(N)=O)NC(=O)[C@@H](N)Cc1c[nH]c2ccccc12)C(=O)N[C@@H](Cc1ccc(O)cc1)C(=O)O [compound 129] (H-WQGLELHPGQPMY-OH; N-terminus and C-terminus assumed) | <90 | <90
17 | CSCC[C@H](NC(=O)[C@@H]1CCCN1C(=O)[C@H](CO)NC(=O)CNC(=O)[C@@H]1CCCN1C(=O)[C@H](CCCCN)NC(=O)[C@H](CC(C)C)NC(=O)[C@@H](NC(=O)[C@H](CC(C)C)NC(=O)[C@@H](NC(=O)[C@H](CCC(=O)O)NC(=O)[C@@H](N)Cc1c[nH]c2ccccc12)C(C)C)[C@@H](C)O)C(=O)N[C@@H](Cc1ccc(O)cc1)C(=O)O [compound 130] (H-WEVLTLKPGSPMY-OH; N-terminus and C-terminus assumed) | <90 | <90
18 | CC[C@H](C)[C@H](NC(=O)[C@H](CC(C)C)NC(=O)[C@H](Cc1c[nH]cn1)NC(=O)[C@@H]1CCCN1)C(=O)N[C@@H](CCC(N)=O)C(=O)N[C@@H](CC(C)C)C(=O)NCC(=O)N[C@@H](CC(C)C)C(=O)NCC(=O)N[C@@H](CCC(N)=O)C(=O)N1CCC[C@H]1C(=O)N[C@@H](CCSC)C(=O)N[C@@H](Cc1ccc(O)cc1)C(=O)O [compound 131] (H-PHLIQLGLGQPMY-OH; N-terminus and C-terminus assumed) | <90 | <90
